Peptide text beside a SMILES is read from it. * marks the point of attachment. C18 diacid = O=C(O)CCCCCCCCCCCCCCCCC(=O)*
Key:
[1] = Assay (XVII) T½ and subcutaneous bioavailability in Beagle dogs; assay type: in vivo
Experimental: The area under the plasma concentration versus time curve (AUC, [time×concentration]) was calculated (by the Pharsight programme) after both subcutaneous administration and intravenous administration, typically until 240-288 hours post dosing, or until last measured concentration. The AUC was calculated by extrapolating to infinity and dose normalized. The absolute bioavailability (F %) was then calculated based on the dose-corrected AUC values, namely as AUC/Dsc divided by AUC/Div×100, where Dsc is the subcutaneous dose per kg, and Div the dose per kg given intravenously. Assay (XVII)—Determination of T½ and Subcutaneous Bioavailability in Beagle Dogs […]
By protraction is meant the prolongation of the time in the body and thereby the time of action of the mimylin derivatives. This was done in PK studies, where the terminal half-life of the derivative in question was determined following i.v. administration. By terminal half-life is generally meant the period of time it takes to halve a certain plasma concentration, measured after the initial distribution phase. […]
The plasma concentration of the respective mimylin derivative was analysed using LC-MS. Individual plasma concentration-time profiles were analysed by a non-compartmental model in Phoenix WinNonlin version 6.3 (Pharsight Inc., Mountain View, Calif., USA). […]

[2] = Assay (IX) pK, T½ in mini-pig; assay type: in vivo, Göttingen mini-pigs; details: i.v.
Outline: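 Female Göttingen mini-pigs (5–12 months, 15–35 kg, fed freely) received a single i.v. dose of approximately 5 nmol/kg via central venous catheter, typically n=3. Plasma was sampled from pre-dose to 240 h (sometimes 288 h) and quantified by LC-MS. T½ was derived by non-compartmental analysis from the terminal log-linear slope (ln2/λz).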

- Subcutaneous bioavailability (%) ([1]; Beagle dogs): 98%
- Beagle dogs iv PK, t½ ([1]; i.v., harmonic mean, n = 2): 95 h
- PK mini pig iv T½ [2]: 85 h
SMILES: CC(C)C[C@H](NC(=O)[C@H](C)NC(=O)[C@H](C)NC(=O)[C@@H](NC(=O)[C@H](CO)NC(=O)[C@H](CC(C)C)NC(=O)[C@H](CCC(=O)O)NC(=O)[C@H](CO)NC(=O)[C@H](C)NC(=O)[C@H](CCC(=O)O)NC(=O)CCCCCCCCCCCCCCCCC(=O)O)[C@@H](C)O)C(=O)NCC(=O)N[C@@H](CCCNC(=N)N)C(=O)N[C@@H](CC(C)C)C(=O)N[C@@H](CO)C(=O)N[C@@H](C)C(=O)N[C@@H](CCC(=O)O)C(=O)N[C@@H](CC(C)C)C(=O)N[C@@H](Cc1cnc[nH]1)C(=O)N[C@@H](CCC(=O)O)C(=O)N[C@@H](CC(C)C)C(=O)N[C@@H](C)C(=O)N[C@H](C(=O)N[C@@H](CC(C)C)C(=O)N1CCC[C@H]1C(=O)N[C@@H](CCCNC(=N)N)C(=O)N[C@H](C(=O)N[C@@H](CCC(=O)O)C(=O)N[C@H](C(=O)NCC(=O)N1CCC[C@H]1C(=O)N[C@@H](CCC(=O)O)C(=O)N[C@@H](CO)C(=O)N1CCC[C@H]1C(N)=O)[C@@H](C)O)[C@@H](C)O)[C@@H](C)O [Ex. #2, [N-terminal(C18 diacid)]mimylin] ({C18 diacid}-EASELSTAALGRLSAELHELATLPRTETGPESP-NH2)

Source: US9593149B2, “Amylin and calcitonin receptor agonist” (Novo Nordisk A/S, priority 2014, dated 2017)
